Results reported in publication PMC4920673, “Nitroimidazole carboxamides as antiparasitic agents targeting Giardia lamblia, Entamoeba histolytica and Trichomonas vaginalis” (European Journal of Medicinal Chemistry, 2016).
pEC50: −log10 of the molar value. Converted amounts (≈) assume the structure as drawn. Read-outs that look alike come from different tables or passages of the source.

Key:
[1] = Resazurin cytotoxicity assay, HepG2; format: cell-based, Human; details: human, 24 h, highest concentration 100 μM, n = 3, read-out: CC50 Hep G2
In short: (§1)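 Cells pre-cultured 24 h in DMEM/10% FBS at 37 °C, then exposed 24 h to compound dilution series (top 100 μM). Viability by 5 μM resazurin, 2 h, fluorescence 560/590 nm; 1% Triton X-100 as lysis control; CC50 from curve fitting.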

[2] = tested on: C. difficile 630 (ATCC BAA-1382); experiment: Broth microdilution MIC assay, C. difficile 630; format: cell-based, Clostridium difficile; details: Clostridioides difficile, ATCCBAA1382
In short: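 Compounds two-fold serially diluted against overnight anaerobic BHIS cultures of the strain, following CLSI methods modified in broth and inoculum for C. difficile. Plates incubated 24 h at 37 °C; MIC is the lowest concentration without visible growth, median reported with range.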

[3] = tested on: T. vaginalis; design: method as in earlier work; details: cited from earlier work
[4] = tested on: T. vaginalis F1623; experiment: ATP-bioluminescence growth/survival EC50 assay, T. vaginalis; format: cell-based, Trichomonas vaginalis; details: Trichomonas vaginalis; for pEC50: minimum n = 3
Experimental: (§2) Compounds were screened for antiparasitic activity using an ATP-bioluminescence based assay for cell growth and survival, [24]. […] Viable cell numbers were determined in triplicate using the CellTiter-Glo Luminescent Cell Viability Assay.

[5] = tested on: G. lamblia WB (MtzS); experiment: ATP-bioluminescence growth/survival EC50 assay, G. lamblia WB; details: for pEC50 / EC50: Giardia duodenalis; for EC50: read-out: pEC50 ± SE G. lamblia WB, MtzS strain WB (converted); for S.I (CC50/EC50): average cytotoxicity against HEK293 and HepG2 / G. lamblia WB activity
Experimental: as §2

[6] = tested on: G. lamblia 713M3 (MtzR); experiment: ATP-bioluminescence growth/survival EC50 assay, G. lamblia 713M3; format: cell-based, Giardia lamblia; details: Giardia duodenalis; for pEC50: read-out: EC50 G. lamblia 713M3, MtzR strain 713M3, minimum n = 3; for EC50: read-out: pEC50 ± SE G. lamblia 713M3, MtzR strain 713M3 (converted)
Experimental: as §2

[7] = tested on: E. histolytica HM1:IMSS; experiment: ATP-bioluminescence growth/survival EC50 assay, E. histolytica; format: cell-based, Entamoeba histolytica; details: Entamoeba histolytica; for pEC50: read-out: EC50 E. histolytica HM1:IMSS; for EC50: read-out: pEC50 ± SE E. histolytica HM1:IMSS (converted)
Experimental: as §2

[8] = Resazurin cytotoxicity assay, HEK293; format: cell-based, Human; details: human, 24 h, highest concentration 100 μM, n = 3, read-out: CC50 HEK 293
In short: as §1

[9] = tested on: C. difficile NAP1/027 (ATCC BAA-1803); experiment: Broth microdilution MIC assay, C. difficile NAP1/027; format: cell-based, Clostridium difficile; details: Clostridioides difficile, ATCCBAA1803; strain NAP1/027
In short: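 Strains grown anaerobically in BHIS at 37 °C overnight; compounds two-fold serially diluted (64 to 0.03 μg/mL) in pre-reduced medium under anaerobic atmosphere (5% H2, 10% CO2, 85% N2). Plates incubated 24 h at 37 °C; MIC taken as lowest concentration without visible growth, median of replicates reported.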

[10] = tested on: H. meleagridis; design: method as in earlier work; details: turkey; cited from earlier work
[11] = Metabolic stability in liver microsomes; format: in vitro ADME, human
Experimental: Metabolic stability studies were performed with human liver microsomes (HMMC-PL, Lot# PL050B-B, Thermo Fisher Scientific USA) with test compound (5 μM) degradation monitored by LC/MS/MS analysis. Stock solutions (2.5 mM) of the test compounds were prepared in DMSO. […] The reaction was initiated by addition of NADPH solution (cofactor) in potassium phosphate buffer (final concentration 1 mM). Aliquots (180 μL) from the reaction mixture were withdrawn (t = 0, 10, 30, 60 and 120 min) and quenched by adding ice-cold stop solution (540 μL) comprising 0.5 μM carbutamide internal standard in acetonitrile: methanol: formic acid (1: 1: 0.001). Reaction samples were incubated at 4 °C for 30 min, centrifuged at 14,000 × g for 8 min and the clear supernatant was transferred to a vial for LC/MS/MS analysis. The percentage of compound metabolised at different times was calculated as a percentage of the levels at the start of incubation (t = 0 min sample). Matrix blank was also prepared as a control. […] LC/MS/MS parameters are detailed in the supplementary information (Supplementary Table 1).

[12] = Plasma protein binding by ultrafiltration; format: in vitro ADME; details: human; for fraction unbound at 0.5 h, 5 µM: read-out: Plasma protein binding (% bound) (converted)
Experimental: Plasma Protein Binding (PPB) was performed using an Ultrafiltration method, [28]. […] Samples were incubated at […] for 30 min, then centrifuged at 14,000 × g for 8 min, with the clear supernatant transferred to a vial for LC/MS/MS analysis. […] The fraction of unbound compound was calculated by determining the concentration of the filtered sample and the concentration of unfiltered sample. […] LC/MS/MS parameters are detailed in the supplementary information (Supplementary Table 1).

[13] = cited from earlier work
[14] = tested on: Giardia; design: method as in PMID 23403423; details: cited from earlier work
[15] = tested on: G. lamblia WB trophozoites; experiment: Light microscopy of G. lamblia WB growth and survival; format: cell-based, Giardia lamblia; details: for Parasite cell growth by microscopy: 3 × EC50 (metronidazole 18 μM, 12a 1.5 μM), 48 h, relative to vehicle control; for Morphology of treated G. lamblia: 3 × EC50, 48 h, phase contrast
Experimental: The effect of compounds on G. lamblia WB growth and survival was examined by light microscopy. Briefly, stock compounds were diluted in DMSO (100%) to give 400 × final concentration of compound. […]. Assay plates were incubated for 48 h at 37 °C in the GasPak™ EZ Anaerobe Gas Generating Pouch Systems (VWR, West Chester, PA) to maintain anaerobic conditions throughout the incubation period. The assays were performed in triplicate (3 wells/treatment). […]

[16] = tested on: giardiasis; details: cited from earlier work
[17] = strain 630, MtzS, median of n = 4, read-out: MIC C. difficile 630
[18] = read-out: EC50 T. vaginalis F1623, MtzS
[19] = read-out: pEC50 ± SE T. vaginalis F1623, MtzS (converted)
[20] = read-out: EC50 G. lamblia WB, MtzS strain WB, minimum n = 3
[21] = 5 μM, human liver microsomes 1 mg/mL, NADPH
[22] = pooled human plasma (100%), 5 μM, 100% human plasma, 37 °C, 30 min, ultrafiltration

Row | Structure (SMILES) | CC50 at 24 h ([1]; HepG2 cells) | MIC [2, 17] | pEC50 [4, 18] | EC50 [4, 19] | pEC50 [5, 20] | EC50 [5] | S.I (CC50/EC50) [5] | pEC50 [6] | EC50 [6] | pEC50 [7] | EC50 [7] | CC50 at 24 h ([8]; HEK293 cells) | MIC [9] | Microsome stability (% remaining at 2 h) [11, 21] | fraction unbound at 0.5 h, 5 µM [12, 22] | also measured
1 | CN(C)C(=O)c1ncc([N+](=O)[O-])n1C [Compound 8g, N,N,1-trimethyl-5-nitro-1H-imidazole-2-carboxamide] | > 100 µM | 32 µg/mL (≈ 161 µM) | 5.89 | 1.29 µM | 5.62 | 2.4 µM | >42 | < 4.70 | > 20 µM | 4.85 | 14.1 µM | > 100 µM | 64 µg/mL (≈ 323 µM) |  |  | Activity in in vivo mouse model of T. vaginalis infection [3]: activity; Activity in in vivo model of H. meleagridis infection [10]: activity
2 | O=C(c1ncc([N+](=O)[O-])[nH]1)N1CCOCC1 [Compound 12h, Morpholino(5-nitro-1H-imidazol-2-yl)methanone] | > 100 µM | 2 µg/mL (≈ 8.84 µM) | 5.54 | 2.88 µM | 5.06 | 8.71 µM | >11 | < 4.70 | > 20 µM | 5.29 | 5.13 µM | > 100 µM | 2 µg/mL (≈ 8.84 µM) | 100 % remaining | 0.22 | 
3 | Cn1c([N+](=O)[O-])cnc1C(=O)N1CCOCC1 [Compound 8h, (1-methyl-5-nitro-1H-imidazol-2-yl)(morpholino)methanone] | > 100 µM | 32 µg/mL (≈ 133 µM) | 6.22 | 0.575 µM | 5.80 | 1.58 µM | >63 | 4.96 | 11.2 µM | 4.85 | 14.1 µM | > 100 µM | 32 µg/mL (≈ 133 µM) | 97 % remaining | 0.91 | Activity in in vivo mouse model of T. vaginalis infection [3]: activity; Activity in in vivo model of H. meleagridis infection [10]: activity
4 | CCS(=O)(=O)CCn1c([N+](=O)[O-])cnc1C [Compound 2, tinidazole] |  |  |  |  |  |  |  |  |  |  |  |  |  |  |  | Plasma protein binding [13]: mostly unbound
5 | CC(=O)OC[C@H]1O[C@@H]([S-])[C@H](OC(C)=O)[C@@H](OC(C)=O)[C@@H]1OC(C)=O.CCP(CC)CC.[Au+] [auranofin] |  |  |  |  |  |  |  |  |  |  |  |  |  |  |  | Effect on Giardia cells in prior study [14]: caused cell blebbing
6 | CCOC(=O)c1nc([N+](=O)[O-])cn1Cc1ccc(OC(F)(F)F)cc1 [Compound 14c, Ethyl 4-nitro-1-(4-(trifluoromethoxy)benzyl)-1H-imidazole-2-carboxylate] |  | > 64 µg/mL |  |  | 5.22 | 6.03 µM | >17 |  |  | 4.29 | 51.3 µM |  | > 64 µg/mL |  |  | CC50 at 24 h [1]: > 100 µM; melting point: 112 °C; CC50 at 24 h [8]: > 100 µM
7 | Cn1c([N+](=O)[O-])cnc1C(=O)NCc1ccc(F)cc1 [Compound 8a, N-(4-fluorobenzyl)-1-methyl-5-nitro-1H-imidazole-2-carboxamide] | > 100 µM | > 64 µg/mL | 5.28 | 5.25 µM | 5.46 | 3.47 µM | >29 | 4.89 | 12.9 µM | 5.01 | 9.77 µM | > 100 µM | > 64 µg/mL | 88 % remaining | 0.05 | fraction unbound at 30 min, 5 μM ([12]; pooled human plasma (100%), 5 μM, 100% human plasma, 37 °C, 30 min, ultrafiltration, read-out: Plasma protein binding (% bound)): ≤ 0.06
8 | O=C(NCc1ccc(F)cc1)c1ncc([N+](=O)[O-])[nH]1 [Compound 12a, N-(4-fluorobenzyl)-5-nitro-1H-imidazole-2-carboxamide] |  | 4 µg/mL (≈ 15.1 µM) | 5.64 | 2.34 µM | 6.30 | 0.525 µM |  | 5.62 | 2.34 µM | 5.44 | 3.63 µM |  | 4 µg/mL (≈ 15.1 µM) | 94 % remaining |  | CC50 at 24 h [1]: > 100 µM; CC50 at 24 h [8]: > 100 µM; Parasite cell growth by microscopy [15]: inhibited; Morphology of treated G. lamblia [15]: altered
9 | Cc1ncc([N+](=O)[O-])n1CCO [Compound 1, Metronidazole, reference compound] | > 100 µM | 0.5 µg/mL (≈ 2.92 µM) |  |  | 5.21 | 6.17 µM |  | 4.74 | 18.2 µM |  |  | > 100 µM | 0.5 µg/mL (≈ 2.92 µM) |  |  | Microsome stability (% remaining at 2 h) ([11]; human, microsomes): 100 % remaining; MIC ([2]; 630 and NAP1/027 strains together or strain not given, read-out: MIC C. difficile): 0.5 µg/mL (≈ 2.92 µM); pEC50 ([4]; MtzS, read-out: EC50 T. vaginalis F1623): 6.10; EC50 ([4]; MtzS, read-out: pEC50 ± SE T. vaginalis F1623 (converted)): 0.794 µM; Effect on Giardia cells in prior study [14]: slowed the rate of oscillation of the Giardia flagella; pEC50 ([5]; read-out: EC50 against G. lamblia strains, G. lamblia strains including metronidazole-resistant strains, stated together): 4.74 to 5.21; pEC50 ([7]; MtzS, minimum n = 3): 5.30; EC50 ([7]; MtzS): 5.01 µM; Plasma protein binding [13]: mostly unbound; Parasite cell growth by microscopy [15]: inhibited; Morphology of treated G. lamblia [15]: remained similar to the vehicle control; Treatment failure in giardiasis cases [16]: up to 20%; fraction unbound at 30 min, 5 μM ([12]; plasma, Plasma protein binding (% bound)): > 0.95
10 | O=C(Nc1ncc([N+](=O)[O-])s1)c1ccccc1O [tizoxanide] |  |  |  |  |  |  |  |  |  |  |  |  |  |  |  | Plasma protein binding ([13]; active metabolite of nitazoxanide): highly plasma protein bound
